# According to patent US6083958A, “Anti-HIV composition containing imidazole derivative” (Shionogi & Co., Ltd., priority 1996, dated 2000):
# Key:
# [1] = test system: HIV-1 (IIIB strain clone 2); assay: Synergy of anti-HIV activity, viral reverse transcriptase activity in supernatant of infected MT-4 cells (checker board); format: cell-based
# Procedure: Human T cell line Molt-4 cells persistently infected with HIV-1 (IIIB strain clone 2) were cultured in RPMI-1640 medium supplemented with 10% fetal calf serum, and the supernatant was filtered and stored at -80° C. after the virus titer was determined.
# The combination of these two drugs was conducted by the checker board method using 96-well microplates. […] After 4 hours, 50 μl of the culture supernatant of the above HIV-1 IIIB strain clone 2 was added, at the same time 50 μl of CDIMI in two-fold dilution was also added, followed by incubation in 5% CO2 incubator at 37° C. for 5 days.
# Virus titers in the culture supernatant were calculated by taking viral reverse transcriptase activity as an index determined by the following method:
# To 100 μl of a reaction mixture containing 50 mM Tris-HCl, pH 8.3, 150 mM KCl, 10 mM MgCl2, 0.1% Nonidet P-40, 10 mM dithiothreitol, 5 μg/l poly(A), 5 μg/ml (dT)12-18, and 1 μCi [^3 H]dTTP was added 10 μl of the culture supernatant, and incubated at 37° C. for 3 hours. The reaction mixture was chilled on ice and transferred by a cell harvester to a DEAE-Filtermat. The filter was washed with 5% Na2 HPO4.12H2 O and H2 O, and the radioactivity incorporated in DNA was measured by an LKB Beta Plate scintillation counter to determine viral reverse transcriptase activity.
# On the assumption that the inhibition of the two anti-HIV compounds was additive, virus growth inhibition rate was calculated on all combinations of concentrations according to the formula (I)
# wherein Z means an additive inhibition rate, X is an inhibition rate of CDIMI and Y is an inhibition rate of the other anti-HIV compound.
# When the measured value is greater than the additive inhibition rate, namely, the value is more than 0 in Table 3, it is judged as having synergy. Synergy volume is designated as total sum of values more than 0 in Table 3.
# Addition to cells of saquinavir and foscarnet was done at the same time as that of CDIMI when the virus was infected. […]
# [2] = test system: HIV-1 IIIB strain clone 3; assay: Suppression of the emergence of drug resistant variants in M 8166 cells; format: cell-based; settings: for Week of emergence of resistant mutants: CDIMI 1 ng/ml, ddC 50 ng/ml at start, doubled on viral growth; for Ratio of resistance compared to parent strain: isolated resistant virus vs parent strain
# Procedure: an T cell line Molt-4 cells persistently infected with HIV-1 (IIIB strain clone 3) were cultured in RPMI-1640 medium supplemented with 10% fetal calf serum, the supernatant was filtered and stored at […], after the virus titer was determined.
# One ml of the above medium containing 10^6 cells of M 8166 was added to each well of 12-well plates, and 100 μl of the above HIV-1 IIIB strain clone 3 was added, and incubated for 2 hours for virus infection. Cells were washed with the above medium, and 4 ml of the medium containing CDIMI or other anti-HIV compounds alone or their combination was added to each well and incubated in 5% CO2 incubator at 37° C. CDIMI was added at 1 ng/ml and ddC was added at 50 ng/ml respectively and the same concentrations of them were added for the combination. Cells were subcultured twice a week, and when viral growth was observed, the drug concentration of the anti-HIV compound was doubled. In the case that no viral growth was observed, the drug concentration was kept the same as that of the last culture.
# Virus titer was determined using viral reverse transcriptase activity as a marker by the following method.
# To 100 μl of the reaction mixture containing 50 mM Tris-HCl, pH 8.3, 150 mM KCl, 10 mM MgCl2, 0.1% Nonidet P-40, 10 mM dithiothreitol, 5 μg/ml poly(A), 5 μg/ml (dT) 12-18, and 1 μCi [^3 H] dTTP was added 10 μl of the culture supernatant, and incubated at 37° C. for 3 hours. The reaction mixture was chilled on ice and collected by a cell harvester on a DEAE-Filtermat. The filter was washed with 5% Na2 HP04.12H2 O and H2 O, and the radioactivity incorporated in DNA was measured by an LKB Beta Plate scintillation counter to determine viral reverse transcriptase activity.
# When virus growth was observed, viruses were isolated and the sensitivity to each active ingredient was assayed by the usual method.
# [3] = test system: D67N + K70R; assay: microbe, parasite or virus in culture; format: cell-based, HIV
# Procedure: (§1) The mutant clones' cDNAs were transfected to SW480 cells. The produced mutant viruses were infected to MT-4 cells in the same method as described in Experiment 1 in the presence of the drug. After 4 days, viral growth was assayed using reverse transcriptase activity as a marker.
# [4] = test system: F227C; assay: microbe, parasite or virus in culture; format: cell-based, HIV; settings: Human immunodeficiency virus 1, MT4, 96 h
# Procedure: as §1
# [5] = test system: L234I; assay: microbe, parasite or virus in culture; format: cell-based, HIV; settings: Human immunodeficiency virus 1, MT4, 96 h
# Procedure: as §1
# [6] = test system: NL432 (Wild strain); assay: microbe, parasite or virus in culture; format: cell-based, HIV; settings: Human immunodeficiency virus 1, MT4, 96 h
# Procedure: as §1
# [7] = test system: T215Y + L234I; assay: microbe, parasite or virus in culture; format: cell-based, HIV
# Procedure: as §1
# [8] = test system: T215Y; assay: microbe, parasite or virus in culture; format: cell-based, HIV
# Procedure: as §1
# [9] = test system: V106A + F227L; assay: microbe, parasite or virus in culture; format: cell-based, HIV; settings: Human immunodeficiency virus 1, MT4, 96 h
# Procedure: as §1
# [10] = test system: Y181C; assay: microbe, parasite or virus in culture; format: cell-based, HIV; settings: Human immunodeficiency virus 1, MT4, 96 h
# Procedure: as §1
# [11] = test system: CDIMI resistant or AZT resistant mutant clones of HIV; assay: Cross resistance of CDIMI resistant and AZT resistant mutant clones; format: cell-based
# Procedure: as §1
# [12] = Human immunodeficiency virus 1, MT4, 96 h
structure (smiles),measurement,setting,value
"CC(C)c1nc(COC(N)=O)n(Cc2ccncc2)c1Sc1cc(Cl)cc(Cl)c1 [CDIMI, 2-carbamoyloxymethyl-5-(3,5-dichlorophenylthio)-4-iropropyl-1-(pyridin-4-yl) methyl-1H-imidazole]",inhibition at 0.005 µg/mL,"[1]; Human immunodeficiency virus 1, IIIB, MT4, read-out: inhibition rate X of CDIMI",99.6%
same,reverse transcriptase inhibition rate (%),"[1]; ddI 0 ng/ml (Table 4), lines in order CDIMI 5, 2.5, 1.25, 0.625, 0.313, 0.16, 0.08 ng/ml, 7200 min",99.01%
same,Week of emergence of resistant mutants,[2],4 weeks
same,Ratio of resistance compared to parent strain,[2],10 times
same,sensitivity of strain,[3]; D67N plus K70R,equivalent to that of the wild strain
same,EC50,[3]; [12],0.31 ng/mL
same,EC90,[3]; [12],1 ng/mL
same,EC50,[4],2.4 ng/mL
same,EC90,[4],9.8 ng/mL
same,EC50,[5],6.8 ng/mL
same,EC90,[5],14 ng/mL
same,EC50,[6],0.31 ng/mL
same,EC90,[6],1.1 ng/mL
same,EC50,[7]; [12],0.69 ng/mL
same,EC90,[7]; [12],2.7 ng/mL
same,sensitivity of strain,[7]; T215Y plus L234I,sensitive to CDIMI and AZT at the same level as the wild strain's
same,EC50,[8]; [12],0.17 ng/mL
same,EC90,[8]; [12],0.4 ng/mL
same,sensitivity of strain,[8]; T215Y,equivalent to that of the wild strain
same,EC50,[9],117 ng/mL
same,EC90,[9],310 ng/mL
same,EC50,[10],4.2 ng/mL
same,EC90,[10],18 ng/mL
same,cross resistance,[11],do not show cross resistance
"Cc1cn([C@H]2C[C@H](N=[N+]=[N-])[C@@H](CO)O2)c(=O)[nH]c1=O [AZT, azidodeoxythymidine, reference compound]",inhibition at 0.0008 µg/mL,"[1]; Human immunodeficiency virus 1, IIIB, MT4, read-out: inhibition rate Y of the other anti-HIV compound",43.4%
"Nc1ccn([C@H]2CC[C@@H](CO)O2)c(=O)n1 [ddC, dideoxycytidine, reference compound]",Week of emergence of resistant mutants,[2],1 weeks
same,Ratio of resistance compared to parent strain,[2],20 times
